Test results as given in patent US8252931B2, “Thiazolo[5,4-B]pyridine glucokinase activators” (Novartis AG, priority 2005, dated 2012).

biological target: T1, recombinant GST-GK (Homo sapiens, UniProt P35557); experiment: activation of recombinant GST-GK in vitro (primary enzyme assay); format: biochemical; conditions: concentration of compound that produces a 50% increase in the activity of GK; read-out: EC50 in primary enzyme assay
T1 sequence (P35557 1-465): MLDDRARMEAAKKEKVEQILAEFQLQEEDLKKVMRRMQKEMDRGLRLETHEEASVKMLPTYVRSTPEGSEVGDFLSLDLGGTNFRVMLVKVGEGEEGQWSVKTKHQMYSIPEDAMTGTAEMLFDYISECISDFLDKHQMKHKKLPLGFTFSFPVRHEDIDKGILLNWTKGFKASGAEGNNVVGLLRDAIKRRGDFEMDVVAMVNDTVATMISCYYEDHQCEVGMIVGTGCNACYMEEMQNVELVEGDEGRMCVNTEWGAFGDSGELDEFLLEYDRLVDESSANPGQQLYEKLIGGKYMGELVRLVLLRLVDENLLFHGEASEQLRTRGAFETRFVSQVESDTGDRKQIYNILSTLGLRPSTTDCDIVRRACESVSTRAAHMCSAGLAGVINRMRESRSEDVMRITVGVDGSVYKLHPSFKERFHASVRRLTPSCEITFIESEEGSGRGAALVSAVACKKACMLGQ
From the text: For example, the glucokinase activation in vitro may be determined by measuring the activation of recombinant GST-GK by a compound of the present invention in the absence or the presence of GKRP, a 68,000 Da protein inhibitor of GK. In these assays, formation of glucose-6-phosphate is coupled directly to the formation of thio-NADH. GST-GK catalyzes the reaction of glucose and Mg-ATP to produce glucose-6-phosphate and ADP. Glucose-6-phosphate dehydrogenase (G6PDH) reduces thionicotinamide (thio-NAD) to thio-NADH. The assay measures the formation of thio-NADH at […].
The basic GK assay components are as follows: 25 mM HEPES (pH 7.1), 25 mM KCl, 2.5 mM MgCl2, 1 mM ATP (Sigma A-5394), 1 mM DTT, 1 mM thio-NAD (Sigma T-7375), 80 units/mL G6PDH (Sigma G-5885), 10 mM glucose and 110 nM GST-GK. For assessing reversal of GK inhibition by GKRP, 20 μM Fructose-6-phosphate (F-6-P) and 370 nM recombinant GKRP are added to these assay components. Fructose-1-phosphate (F-1-P) at 1 μM is used as a control in the GK/GKRP assay. F-1-P reverses inhibition of GST-GK by GKRP.
The assay is done in standard, 96-well, round-bottom plates (Corning) and the total assay volume is 25 μL. Test compounds are serially diluted into 100% DMSO and 0.5 μL of diluted compound in 100% DMSO is added to the assay plate. Assay reagents (24.5 μL) are added using a Zymark robotic platform. Buffer, containing HEPES, MgCl2, KCl, thio-NAD, G6PDH, glucose and GST-GK, are added (5 μL) using the Zymark 8-channel hand pipet. For the GK/GKRP assay, GKRP and F-6-P are also included. The reaction is then initiated by adding 19.5 μL of buffer containing HEPES, MgCl2, KCl, DTT and ATP using the Zymark Reagent Addition Station/Reagent Addition Module. The plates are read kinetically over 10 min at 25° C. using a SpectraMax Plus microplate spectrophotometer (Molecular Devices, Sunnyvale, Calif.) to monitor the increase in optical density at 405 nm. The GK activity in wells containing test compounds is compared with activity in DMSO control wells. The concentration of compound that produces a 50% increase in the activity of GK is calculated and expressed as EC50.

Compound	EC50 [nM]
COc1ccc2nc(NC(=O)[C@H](CC3CCCC3)c3ccc(S(=O)(=O)N(CCC(=O)O)Cc4ccccc4)cc3)sc2n1 [Example 1, 3-(Benzyl-{4-[(R)-2-cyclopentyl-1-(5-methoxy-thiazolo[5,4-b]pyridin-2-ylcarbamoyl)-ethyl]-benzenesulfonyl}-amino)-propionic acid]	270
COCCN(CCC(=O)O)S(=O)(=O)c1ccc(C(CC2CCCC2)C(=O)Nc2nncs2)cc1 (stereo not drawn) [Example 2, 3-[{4-[2-Cyclopentyl-1-([1,3,4]thiadiazol-2-ylcarbamoyl)-ethyl]-benzene-sulfonyl}-(2-methoxy-ethyl)-amino]-propionic acid]	50000
COc1ccc2nc(NC(=O)[C@H](CC3CCCC3)c3ccc(S(=O)(=O)N(CCC(=O)O)Cc4cc5ccccc5o4)cc3)sc2n1 [Example 3, 3-(Benzofuran-2-ylmethyl-{4-[(R)-2-cyclopentyl-1-(5-methoxy-thiazolo[5,4-b]pyridin-2-ylcarbamoyl)-ethyl]-benzenesulfonyl}-amino)-propionic acid]	220
COc1ccc2nc(NC(=O)C(CC3CCCC3)c3ccc(S(=O)(=O)N(CC(=O)O)Cc4ccco4)cc3)sc2n1 (stereo not drawn) [Example 4-9, ({4-[2-Cyclopentyl-1-(5-methoxy-thiazolo[5,4-b]pyridin-2-ylcarbamoyl)-ethyl]-benzenesulfonyl}-furan-2-ylmethyl-amino)-acetic acid]	2400
COc1ccc(CN(CCC(=O)O)S(=O)(=O)c2ccc([C@@H](CC3CCCC3)C(=O)Nc3nc4ccc(OC)nc4s3)cc2)cc1 [Example 4-21, 3-[{4-[(R)-2-Cyclopentyl-1-(5-methoxy-thiazolo[5,4-b]pyridin-2-ylcarbamoyl)-ethyl]-benzenesulfonyl}-(4-methoxy-benzyl)-amino]-propionic acid]	920
COCCN(CCC(=O)O)S(=O)(=O)c1ccc(C(CC2CCCC2)C(=O)Nc2nc3cccnc3s2)cc1 (stereo not drawn) [Example 4-41, 3-[{4-[2-Cyclopentyl-1-(thiazolo[5,4-b]pyridin-2-ylcarbamoyl)-ethyl]-benzenesulfonyl}-(2-methoxy-ethyl)-amino]-propionic acid]	1200
COCCN(CCC(=O)O)S(=O)(=O)c1ccc([C@@H](CC2CCCC2)C(=O)Nc2nc3ccc(SC)nc3s2)cc1 [Example 4-42, 3-[{4-[(R)-2-Cyclopentyl-1-(5-methylsulfanyl-thiazolo[5,4-b]pyridin-2-ylcarbamoyl)-ethyl]-benzenesulfonyl}-(2-methoxy-ethyl)-amino]-propionic acid]	230
COCCOc1ccc2nc(NC(=O)[C@H](CC3CCCC3)c3ccc(S(=O)(=O)N(CCOC)CCC(=O)O)cc3)sc2n1 [Example 4-46, 3-[(4-{(R)-2-Cyclopentyl-1-[5-(2-methoxy-ethoxy)-thiazolo[5,4-b]pyridin-2-ylcarbamoyl]-ethyl}-benzenesulfonyl)-(2-methoxy-ethyl)-amino]-propionic acid]	220
COCCN(CCC(=O)O)S(=O)(=O)c1ccc([C@H](CC2CCCC2)C(=O)Nc2nc3ccc(Cl)nc3s2)cc1 [Example 4-51, 3-[{4-[(S)-1-(5-Chloro-thiazolo[5,4-b]pyridin-2-ylcarbamoyl)-2-cyclopentyl-ethyl]-benzenesulfonyl}-(2-methoxy-ethyl)-amino]-propionic acid]	44000
COCCNC(=O)c1ccc2nc(NC(=O)[C@@H](CC3CCCC3)c3ccc(S(=O)(=O)N(CCOC)CCC(=O)O)cc3)sc2n1 [Example 4-60, 3-[(4-{(S)-2-Cyclopentyl-1-[5-(2-methoxy-ethylcarbamoyl)-thiazolo[5,4-b]pyridin-2-ylcarbamoyl]-ethyl}-benzenesulfonyl)-(2-methoxy-ethyl)-amino]-propionic acid]	6000

same assay, conditions: concentration of compound that produces a 50% increase in the activity of GK; read-out: EC50 in the in vitro assay measuring the activation of recombinant GST-GK

Compound	EC50 [nM]
COc1ccc2nc(NC(=O)[C@H](CC3CCCC3)c3ccc(S(=O)(=O)N(CCC(=O)O)Cc4ccccc4)cc3)sc2n1 [Example 1, 3-(Benzyl-{4-[(R)-2-cyclopentyl-1-(5-methoxy-thiazolo[5,4-b]pyridin-2-ylcarbamoyl)-ethyl]-benzenesulfonyl}-amino)-propionic acid]	~271

test system: DIO mice; experiment: glucokinase activation in vivo: oral glucose tolerance test in DIO mice; conditions: oral (po) dosing; different timepoints during the oral glucose tolerance test; statistically significant
From the text: The glucokinase activation in vivo may be determined as follows:
Male C57BL mice (Jackson Lab, Bar Harbor, Me.) are housed 2 per cage in a reversed light cycle room (light on from 8:00 p.m. to 8:00 a.m.) and given access to food and water ad libitum. To induce DIO, the mice are given a high fat diet (D12492 with 60% caloric intake from fat, Research Diets, New Brunswick, N.J.) from 4 weeks of age and maintained on the diet before being used. The DIO mice are used at 25 weeks of age. On the day of the study, animals are fasted at 7:30 a.m. Body weight measurement and basal blood sample collection are conducted at 10:00 a.m. Plasma glucose values are then determined. Animals are assigned into five groups (n=7/group) with the means of plasma glucose matched among the groups. At 10:30 a.m. animals are dosed with vehicle (water) or compound in vehicle with a dose volume of 5 ml/kg. The test compound is given at 3, 10, 30, or 100 mg/kg. One hour after vehicle or compound dosing, a blood sample (at 0 min) is taken followed by an oral glucose tolerance test (OGTT) at 1 g/kg (20% glucose in water) and a dose volume of 5 ml/kg. […] Plasma glucose concentrations are determined using a glucose meter (Ascensia Elite, Bayer Corp., Mishawaka, Ind.). […] Plasma insulin levels are determined by Luminex assay using Mouse Endocrine Lincoplex kit (Linco Research, Inc., St. Charles, Mo.). […]

Compound	reductions in glucose
COc1ccc2nc(NC(=O)[C@H](CC3CCCC3)c3ccc(S(=O)(=O)N(CCC(=O)O)Cc4ccccc4)cc3)sc2n1 [Example 1, 3-(Benzyl-{4-[(R)-2-cyclopentyl-1-(5-methoxy-thiazolo[5,4-b]pyridin-2-ylcarbamoyl)-ethyl]-benzenesulfonyl}-amino)-propionic acid]	38-53%
